Experimental data: patent US12285437B2 (The Research Foundation for The State University of new York, priority 2019, dated 2025)
Like-named read-outs stand apart in the source and are kept apart here.

Columns and labels:
[1] = system: ES2 ovarian cancer cells; test: Antiproliferation assays against ES2 cancer cells at different pH values; type: cell-based, human; conditions: ES2, 2 h, 1 μM
Description: For cell experiments, a pH 8 or pH 10 (directly from DMI to DMA conversion) solution of DMA 2/4/6 was sterilized by filtering through a 0.2-micron membrane. […] At this point, small amounts of 10 (or 25) mM of sterile aq.
Antiproliferation assays against ES2 cancer cells at different pH values. […] Treatment solution volume was 50-100 μL per well, with a set volume per well for all wells in a plate.

[2] = system: MDA-MB-231 human breast cancer cells; conditions: 3 μM
Description: (§1) pH-dependent anti-proliferation assays with cells. In 96-well plates, ˜3,000 cells were seeded per well then grown for 24-48 hr until 30-40% confluency. […] For serum effect cell plate data shown in FIG. 5I, cell viability was measured using alamar Blue assay (i.e., growth media was replaced with 45 μL of pH 7.4 DMEM/F-12 media without phenol red, 5 μL of alamar Blue reagent (10×) was added; fluorescence at 590 nm was recorded after excitation at 560 nm at 1 hr afterwards).
(§2) The reaction solution was allowed to stand at rt for 1 hr in the dark, during which the pH decreased to ˜9.6. After 1 hr, the reaction solution was split into two 50-μL portions (for pH 7.4 vs. pH 6.2-6.8 cell experiments). The pH of one portion was adjusted to pH 8 (for pH 7.4 cell experiments) or pH 7 (for pH 6.2-6.8 cell experiments). Subsequently, the solution was diluted 30-fold (to 10 μM) with pH 7.4 or pH 6.2-6.8 cell media (final volume 1.5 mL) and then filtered (0.2 micron) before used in cell experiments.

[3] = system: NIH:OVCAR3 human ovarian cancer cells
Description: as §1, §2

[4] = system: SKOV3 human ovarian cancer cells; conditions: FIG. 9A, 4 μM
Description: as §1, §2

[5] = cancer patients, two hours afterwards; cited from earlier work
[6] = system: ES-2 human ovarian cancer cells; test: pH-dependent anti-proliferation assay (MTS; alamar Blue for FIG. 7I); conditions: for Cell Viability Average (Avg): FIG. 7A, ES-2, 6 hr
Source text: pH-dependent anti-proliferation assays with cells.
NaOH to adjust the pH to 9.9.

[7] = system: PC-3 human prostate cancer cells; conditions: FIG. 9B, PC3, […], 4 μM
Description: as §1, §2

[8] = system: ES2 cells; test: Imaging studies (confocal microscopy); type: cell-based, human; conditions: ES2, 1 h
Description: Afterwards, the treatment solution was removed; the nuclei of the cells were labeled with staining dye Hoechst 33342; and then images were taken on a scanning confocal microscope.
Imaging studies (confocal microscopy). Approximately 8,000 ES2 cells were seeded on a colIagen-coated glass dish (MatTek Corporation, part No. P35GCOL-0-10-C) and cultured in McCoy's 5A medium with 10% fetal bovine serum and 1% penicillin-streptomycin at 37° C. in the incubator (5% CO2) overnight. […] After treatment solution was removed, the cells were washed 1× with 100 μL of DMEM/F12 pH-specific media. Prior to fluorescence imaging, the nuclei of cells were stained with 1 μg/mL Hoechst 33342 in PBS for 20 min at 37° C. in the incubator. Afterwards, cells stayed in pH-specific DMEM/F12 media during imaging. […] The images in FIGS. 33-36 were processed using LAS X and ImageJ.

[9] = system: noncancerous kidney epithelial HK2 cells; test: Cytotoxicity assays with noncancerous HK2 kidney cells; type: cell-based, human
Description: Cytotoxicity assays with noncancerous HK2 kidney cells. […] Dox and DMA prodrug experiments were carried out on separate plates. […] The cell viability in vehicle (buffer/DMSO) negative control treatment groups were treated as 100% during normalization of data.

COc1cccc2c1C(=O)c1c(O)c3c(c(O)c1C2=O)C[C@@](O)(C(=O)CO)C[C@@H]3O[C@H]1C[C@H](N)[C@H](O)[C@H](C)O1 [Dox, doxorubicin]
viability ([1]; pH 6.6-6.8): 60-70%
viability ([1]; FIG. 29A, pH 6.7): 60-70%
viability ([1]; FIG. 29A, pH 7.5): 28%
viability ([1]; FIG. 31A, pH 6.5-6.8): 40-60%
viability ([1]; FIG. 31A, pH 7.5): ~20%
Cell Viability Avg ([2]; FIG. 7B, MDA-MB231, 2 hr, pH 6.3-6.4): 30%
Cell Viability Avg ([2]; FIG. 7B, MDA-MB231, 2 hr, pH 7.6-7.7): 15%
Cell Viability Avg ([2]; FIG. 7F, MDA-MB231, […], pH 6.3-6.4): 30%
Cell Viability Avg ([2]; FIG. 7F, MDA-MB231, […], pH 6.5): 29%
Cell Viability Avg ([2]; FIG. 7F, MDA-MB231, […], pH 6.6-6.7): 36%
Cell Viability Avg ([2]; FIG. 7F, MDA-MB231, […], pH 6.9-7.0): 30%
Cell Viability Avg ([2]; FIG. 7F, MDA-MB231, […], pH 7.2-7.3): 29%
Cell Viability Avg ([2]; FIG. 7F, MDA-MB231, […], pH 7.5-7.7): 31%
Cell Viability Avg ([3]; FIG. 7C, OVCAR3, 2 hr, 3 μM, pH 6.3-6.4): 57%
Cell Viability Avg ([3]; FIG. 7C, OVCAR3, 2 hr, 3 μM, pH 7.4-7.6): 24%
Cell Viability Avg ([3]; FIG. 7G, OVCAR3, 2 hr, 2 μM, pH 6.2-6.4): 60%
Cell Viability Avg ([3]; FIG. 7G, OVCAR3, 2 hr, 2 μM, pH 6.4-6.5): 55%
Cell Viability Avg ([3]; FIG. 7G, OVCAR3, 2 hr, 2 μM, pH 6.6-6.7): 58%
Cell Viability Avg ([3]; FIG. 7G, OVCAR3, 2 hr, 2 μM, pH 6.8-6.9): 46%
Cell Viability Avg ([3]; FIG. 7G, OVCAR3, 2 hr, 2 μM, pH 7.1-7.3): 51%
Cell Viability Avg ([3]; FIG. 7G, OVCAR3, 2 hr, 2 μM, pH 7.2-7.5): 48%
Cell Viability Avg ([3]; FIG. 10A, OVCAR3, 6 hr, 1 μM, pH 6.5-6.7): 81%
Cell Viability Avg ([3]; FIG. 10A, OVCAR3, 6 hr, 1 μM, pH 7.3-7.6): 51%
Cell Viability Avg ([4]; pH 6.3-6.5): 39%
Cell Viability Avg ([4]; pH 7.5-7.6): 22%
intratumoral concentration [5]: 0.5 to 5 mM
Cell Viability Average (Avg) ([6]; 0.5 μM, pH 6.6-6.8): 32%
Cell Viability Average (Avg) ([6]; 0.5 μM, pH 7.2-7.5): 16%
Cell Viability Avg ([6]; FIG. 7E, ES2, […], 1 μM, pH 6.3-6.4): 43%
Cell Viability Avg ([6]; FIG. 7E, ES2, […], 1 μM, pH 6.5): 49%
Cell Viability Avg ([6]; FIG. 7E, ES2, […], 1 μM, pH 6.7-6.8): 44%
Cell Viability Avg ([6]; FIG. 7E, ES2, […], 1 μM, pH 6.8-6.9): 42%
Cell Viability Avg ([6]; FIG. 7E, ES2, […], 1 μM, pH 7.2): 25%
Cell Viability Avg ([6]; FIG. 7E, ES2, […], 1 μM, pH 7.2-7.4): 23%
Cell Viability Avg ([6]; FIG. 7I, ES2, FBS(50%), 1 μM, pH 6.5-6.9): 71%
Cell Viability Avg ([6]; FIG. 7I, ES2, FBS(50%), 1 μM, pH 7.2-7.7): 36%
Cell Viability Avg ([6]; FIG. 7I, ES2, no FBS, 1 μM, pH 6.5-6.9): 77%
Cell Viability Avg ([6]; FIG. 7I, ES2, no FBS, 1 μM, pH 7.2-7.7): 48%
Cell Viability Avg ([6]; FIG. 8A, ES2, 0.1 μM, pH 6.6-6.7): 87%
Cell Viability Avg ([6]; FIG. 8A, ES2, 0.1 μM, pH 7.5-7.6): 62%
Cell Viability Avg ([6]; FIG. 8A, ES2, 0.3 μM, pH 6.6-6.7): 72%
Cell Viability Avg ([6]; FIG. 8A, ES2, 0.3 μM, pH 7.5-7.6): 33%
Cell Viability Avg ([6]; FIG. 8A, ES2, 1 μM, pH 6.6-6.7): 35%
Cell Viability Avg ([6]; FIG. 8A, ES2, 1 μM, pH 7.5-7.6): 15%
Cell Viability Avg ([6]; FIG. 8A, ES2, 3 μM, pH 6.6-6.7): 21%
Cell Viability Avg ([6]; FIG. 8A, ES2, 3 μM, pH 7.5-7.6): 2%
Cell Viability Avg ([6]; FIG. 8B, ES2, 2 hr, 1 μM, pH 6.6-6.8): 44%
Cell Viability Avg ([6]; FIG. 8B, ES2, 2 hr, 1 μM, pH 7.2-7.6): 23%
Cell Viability Avg ([6]; FIG. 8B, ES2, 6 hr, 0.5 μM, pH 6.6-6.8): 32%
Cell Viability Avg ([6]; FIG. 8B, ES2, 6 hr, 0.5 μM, pH 7.2-7.6): 16%
Cell Viability Avg ([6]; FIG. 8B, ES2, 12 hr, 0.5 μM, pH 6.6-6.8): 47%
Cell Viability Avg ([6]; FIG. 8B, ES2, 12 hr, 0.5 μM, pH 7.2-7.6): 13%
Cell Viability Avg ([6]; FIG. 8B, ES2, 24 hr, 1 μM, pH 6.6-6.8): 35%
Cell Viability Avg ([6]; FIG. 8B, ES2, 24 hr, 1 μM, pH 7.2-7.6): 15%
Cell Viability Avg ([6]; FIG. 10B, ES2, 12 hr, 0.5 μM, pH 6.6-6.7): 47%
Cell Viability Avg ([6]; FIG. 10B, ES2, 12 hr, 0.5 μM, pH 7.4-7.6): 13%
Cell Viability Avg ([7]; pH 6.3-6.4): 53%
Cell Viability Avg ([7]; pH 7.5-7.6): 15%
distribution of Dox fluorescence within cells [8]: within the nuclei
Dox fluorescence signals in cells, pH 6.7 vs. 7.7 ([8]; 4 μM Dox or 8 μM prodrug/DMI): More Dox fluorescence signals were observed at pH 7.7 than 6.7
viability ([9]; FIG. 29B, HK2, pH 7.4, 30 μM): 21%
cells killed ([9]; FIG. 30B, HK2, pH 7.4, 1 μM): 20%
viable cells ([9]; FIG. 30B, HK2, pH 7.4, 30 μM): 31%
cells killed ([9]; FIG. 31B, HK2, pH 7.4, 30 μM): > 80%
